Measured values as given in publication PMC12829593 (Journal of cystic fibrosis : official journal of the …, 2025).
Converted amounts (≈) assume the structure as drawn. Read-outs that look alike come from different tables or passages of the source.

What was measured:
[1] = tested on: CFTR; settings: estimated from published data, compounds used concurrently; cited from earlier work
[2] = format: in vivo, human; settings: mean (SD); for Cavg / Cmin / AUC / Cmax / half-life / Tmax: plasma; for Cavg / Cmin / Cmax: steady state; for AUC / Cmax / half-life / Tmax: human, oral; for AUC: AUCτ, AUC24 (ELX, TEZ) or AUC12 (IVA)
[3] = Tacrolimus concentration in transplant participants; format: in vivo, human; settings: Transplant (n=12), concurrent ETI, mean (SD)
[4] = Transplant group (n=12), concomitant tacrolimus
[5] = T1/2, Non-transplant group (n=14)
[6] = T1/2, Transplant group (n=12), concomitant tacrolimus

| CLss/F ([2]; Non-transplant group (n=14)) | V/F ([2]; Non-transplant group (n=14)) | Cavg ([2]; Non-transplant group (n=14)) | Cmin ([2]; Non-transplant group (n=14)) | CLss/F [2, 4] | V/F [2, 4] | Cavg [2, 4] | Cmin [2, 4] | AUC ([2]; Non-transplant group (n=14)) | AUC [2, 4] | Cmax ([2]; Non-transplant group (n=14)) | Cmax [2, 4] | half-life [2, 5] | half-life [2, 6] | Tmax ([2]; Non-transplant group (n=14)) | Tmax [2, 4] | Cmin ([2]; Non-transplant group (n=14), listed as IVA) | Tacrolimus concentration [3] | Compound | EC50 [1] | EC90 [1] |
| --- | --- | --- | --- | --- | --- | --- | --- | --- | --- | --- | --- | --- | --- | --- | --- | --- | --- | --- | --- | --- |
| 2.05(2.29) L/h | 107(155) | 6398(3233) ng/mL | 4327(2359) ng/mL | 1.23(0.79) L/h | 37.4(15.0) | 8339(3152) ng/mL | 5632(2664) ng/mL | 154 µg·h/mL | 200 µg·h/mL | 9.08 µg/mL | 11.4 µg/mL | 35 h | 23.6 h | 4.79 h | 7.33 h | – | – | Cc1nn(C)cc1S(=O)(=O)NC(=O)c1ccc(-n2ccc(OCC(C)(C)C(F)(F)F)n2)nc1N1C[C@@H](C)CC1(C)C [Elexacaftor, elexacaftor] | 0.5 mg/L (≈ 0.837 µM) | 4.5 mg/L (≈ 7.53 µM) |
| 27.9 (47.4) L/h | 337 (441) | 947 (507) ng/mL | 525 (325) ng/mL | 19.9 (15.5) L/h | 168 (71) | 833 (342) ng/mL | 467 (203) ng/mL | 11.4 µg·h/mL | 9.9 µg·h/mL | 1.38 µg/mL | – | 9.4 h | 7.8 h | 4 h | 4.6 h | 525 ng/mL | – | CC(C)(C)c1cc(C(C)(C)C)c(NC(=O)c2c[nH]c3ccccc3c2=O)cc1O [Ivacaftor, ivacaftor] | 0.04 mg/L (≈ 0.102 µM) | 0.35 mg/L (≈ 0.892 µM) |
| – | – | – | – | – | – | – | – | – | – | – | – | – | – | – | – | – | 6.5 (1.5) ng/mL | C=CC[C@@H]1/C=C(\C)C[C@H](C)C[C@H](OC)[C@H]2O[C@@](O)(C(=O)C(=O)N3CCCC[C@H]3C(=O)O[C@H](/C(C)=C/[C@@H]3CC[C@@H](O)[C@H](OC)C3)[C@H](C)[C@@H](O)CC1=O)[C@H](C)C[C@@H]2OC [Tacrolimus, tacrolimus] | – | – |
| 1.53(0.83) L/h | 37.1(24.4) | 3294(1314) ng/mL | 1746(1050) ng/mL | 1.54(1.07) L/h | 47.5(59) | 3403(1240) ng/mL | 2016(904) ng/mL | 79 µg·h/mL | 82 µg·h/mL | 7.46 µg/mL | 6.52 µg/mL | 19 h | 21 h | 2.21 h | 3.08 h | – | – | CC(C)(CO)c1cc2cc(NC(=O)C3(c4ccc5c(c4)OC(F)(F)O5)CC3)c(F)cc2n1C[C@@H](O)CO [Tezacaftor, tezacaftor] | 0.4 mg/L (≈ 0.768 µM) | 3.5 mg/L (≈ 6.72 µM) |
